Results published in BigSolDB 2.1.

CC(S)C(=O)NCC(=O)O (stereo not given)
solubility (mole fraction)
Settings	273.15 K	278.15 K	283.15 K	288.15 K	293.15 K	298.15 K	303.15 K	308.15 K	313.15 K	318.15 K
in acetonitrile	0.00946	0.0105	0.0115	0.0126	0.0138	0.0151	0.0165	0.018	0.0196	0.0212
in isobutanol	0.0119	0.0141	0.0166	0.0191	0.0217	0.0247	0.0281	0.0321	0.0365	0.0413
in n-butanol	0.0251	0.0311	0.0379	0.0451	0.0529	0.0614	0.0709	0.0811	0.0918	0.103
in toluene	0.00033	0.00037	0.00041	0.00045	0.0005	0.00056	0.00062	0.00069	0.00077	0.00087
